Results taken from PMC11256326, “Discovery of Heparin Mimetic, Potent, and Selective Inhibitors of Human Clotting Factor XIIIa” (ACS Omega, 2024).
“And” between values parts separate entries of the source, which are not always exact repeats. Equal entries are not always repeated. Where two headings read alike, the source gives them in different places. Marks after values point to notes of the source that are not given here.

Legend:
[1] = molecular target: T1, FXIIIa (Homo sapiens, UniProt P00488); test: bisubstrate, fluorescence-based trans-glutamination assay; format: biochemical; conditions: for HS (Hill slope), FXIIIa inhibition: logistic fit eq 1; for IC50: pH 7.4, 37 °C, substrates dansylcadaverine and N,N-dimethylcasein
T1 construct: purchased Haematologic Technologies; host or cells: human plasma
T1 sequence (P00488 39-732 limits assumed): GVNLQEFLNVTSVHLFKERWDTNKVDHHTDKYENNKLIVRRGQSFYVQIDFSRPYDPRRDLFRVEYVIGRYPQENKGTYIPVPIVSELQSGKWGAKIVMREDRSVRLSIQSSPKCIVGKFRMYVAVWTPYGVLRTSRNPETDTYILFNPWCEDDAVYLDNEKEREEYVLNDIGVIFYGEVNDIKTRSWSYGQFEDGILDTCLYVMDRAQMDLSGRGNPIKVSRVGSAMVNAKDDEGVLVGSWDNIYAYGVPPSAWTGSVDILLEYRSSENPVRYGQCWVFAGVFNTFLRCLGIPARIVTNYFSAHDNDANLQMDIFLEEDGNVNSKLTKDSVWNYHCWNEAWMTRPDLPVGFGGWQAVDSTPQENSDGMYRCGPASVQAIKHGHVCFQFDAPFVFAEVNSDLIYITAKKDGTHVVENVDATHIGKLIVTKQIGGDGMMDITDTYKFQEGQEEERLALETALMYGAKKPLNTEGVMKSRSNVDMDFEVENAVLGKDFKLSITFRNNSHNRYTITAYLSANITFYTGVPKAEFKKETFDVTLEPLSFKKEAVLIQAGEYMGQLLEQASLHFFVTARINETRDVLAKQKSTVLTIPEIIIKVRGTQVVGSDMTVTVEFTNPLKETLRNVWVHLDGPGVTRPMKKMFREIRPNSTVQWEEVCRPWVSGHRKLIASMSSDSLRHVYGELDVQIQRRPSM
Text: A series of 27 sulfonated molecules (Figure 3) was screened for inhibition of human FXIIIa using a modified bisubstrate, fluorescence-based trans-glutamination assay, as described earlier.[36],[49] Dansylcadaverine and N,N-dimethylcasein were used as two substrates, which upon FXIIIa-dependence conjugation show a marked increase in fluorescence at 550 nm (λEX = 360 nm). The sulfonated molecules were structurally diverse given their number of anionic groups (mono- (inhibitors 24–27) to octa- (inhibitor 9)), number of building blocks (monomeric (molecules 26–29) to […] (inhibitor 14)), and the nature of the building block of oligomeric derivatives (benzamide derivatives (inhibitors 3–10, 24, and 25), triazine derivatives (inhibitors 11–14), and azo-naphthalene derivatives (molecules 15–22), and ureido-naphthalene derivative (23)) (Figure 3).
To measure the potency and efficacy of these inhibitors, the dose-dependence of FXIIIa inhibition was evaluated using logistic eq 1 (Table 1). The potency of inhibition refers to the IC50 (x-axis), whereas the efficacy refers to the net change in residual FXIIIa activity (ΔY%) (y-axis). Iodoacetamide, a nonselective inhibitor of thiol-containing enzymes, was used as a positive control.
To evaluate the effect of sulfonated molecules on human FXIIIa, a bisubstrate, fluorescence-based trans-glutamination assay was performed as we reported previously.[36],[49] Generally, 1 μL of the sulfonated molecule was diluted with 87 μL of pH 7.4 buffer (50 mM Tris-HCl, 1 mM CaCl2, 100 mM NaCl, and 2 mg/mL N,N-dimethylcasein) and 5 μL dithiothreitol (20 mM) at 37 °C followed by the addition of 2 μL of human FXIIIa (0.3 μM) and incubation for 10 min. The activity of FXIIIa was monitored following the addition of 5 μL of dansylcadaverine (2 mM) by measuring the initial rate of increase in fluorescence emission (λEx. = 360 nm and λEm. = 550 nm). Relative residual FXIIIa activity at each concentration of the inhibitor was calculated from the ratio of FXIIIa activity in the presence and absence of the inhibitor. Logistic eq 1 was used to fit the concentration dependence of residual FXIIIa activity to obtain the potency (IC50) and efficacy (ΔY%) of inhibition. [drawing 1] 1
This equation defines Y as the ratio of residual FXIIIa activity with the inhibitor present compared to its absence. YM represents the maximum possible value of residual FXIIIa activity, while YO denotes the minimum possible value. IC50 signifies the concentration of the inhibitor causing 50% enzyme activity inhibition, and HS represents the Hill slope. Determination of YM, YO, IC50, and HS values is achieved through nonlinear curve fitting of the experimental data.

[2] = molecular target: T1, FXIIIa; set-up: method as in PLoS One 11(7): e0160189; conditions: ref PLoS One 11(7): e0160189; cited from earlier work
[3] = tested on: normal human plasma; test: prothrombin time (PT) of normal human plasma; format: biochemical; conditions: in vitro
Method: (§1) To further evaluate the selectivity as well as the potential toxicity of inhibitors, we studied their effects on the clotting times of normal human plasma as well as their effects on the proliferation of three cell lines. On the one hand, the inhibitors’ effects on activated partial thromboplastin time (APTT) and prothrombin time (PT) were measured, as described earlier under in vitro conditions,[52]−[55] using variable concentrations (0–2000 μM) (Table 3). […] On the other hand, the antiproliferative properties of inhibitors 13 and 16 were evaluated in three cell lines of breast (MCF-7), intestine (CaCo-2), and kidney (HEK-293) (Figure 5B), as described earlier.[56] […] Overall, inhibitor 16 can be considered for further development as a potent, selective, and nontoxic inhibitor of human FXIIIa.
(§2) Clotting times, including activated partial thromboplastin time (APTT) and prothrombin time (PT), were assessed in normal human plasma utilizing the BBL Fibrosystem fibrometer from Becton–Dickinson, as detailed in previous publications.[51]−[54] For the PT assay, thromboplastin-D was dissolved in 4 mL of highly purified water and then warmed to 37 °C. Subsequently, 10 μL of the inhibitor was added to 90 μL of normal human plasma and incubated for 30 s. Following this, 200 μL of prewarmed PT reagent was added, and the clotting time was recorded. In the APTT assay, 10 μL of the inhibitor was combined with 90 μL of normal human plasma and 100 μL of prewarmed APTT reagent (0.2% ellagic acid). After incubation for 4 min at 37 °C, clotting was initiated by adding 100 μL of prewarmed 0.025 M CaCl2, and the clotting time was documented. Multiple concentrations of each molecule were employed in both assays to establish a concentration vs effect curve.

[4] = tested on: normal human plasma; test: activated partial thromboplastin time (APTT) of normal human plasma; format: biochemical; conditions: normal human plasma, in vitro
Method: as §1, §2

## NC(=O)CI [Iodoacetamide, reference compound]
[1]
  HS (Hill slope), FXIIIa inhibition: 0.8 ± 0.2
  IC50: ~2.9 µM and 2.9 µM

## O=c1c(OS(=O)(=O)O)c(-c2ccc(OS(=O)(=O)O)c(OS(=O)(=O)O)c2)oc2cc(OS(=O)(=O)O)cc(OCCOc3cc(-c4oc5cc(OS(=O)(=O)O)cc(OCCOc6cc(OS(=O)(=O)O)cc7oc(-c8ccc(OS(=O)(=O)O)c(OS(=O)(=O)O)c8)c(OS(=O)(=O)O)c(=O)c67)c5c(=O)c4OS(=O)(=O)O)ccc3OS(=O)(=O)O)c12 [compound 1, reference compound]
[2]
  HS (Hill slope), FXIIIa inhibition: 0.9 ±0.2
[1]
  fold less potent than inhibitor 16 against FXIIIa: at least 15 fold

## O=c1c(OS(=O)(=O)O)c(-c2ccc(OS(=O)(=O)O)c(OS(=O)(=O)O)c2)oc2cc(OS(=O)(=O)O)cc(OCCCOc3cc(-c4oc5cc(OS(=O)(=O)O)cc(OCCCOc6cc(OS(=O)(=O)O)cc7oc(-c8ccc(OS(=O)(=O)O)c(OS(=O)(=O)O)c8)c(OS(=O)(=O)O)c(=O)c67)c5c(=O)c4OS(=O)(=O)O)ccc3OS(=O)(=O)O)c12 [compound 2]
[2]
  HS (Hill slope), FXIIIa inhibition: 1.1±0.5
  IC50: 118 ± 50 µM
[1]
  fold less potent than inhibitor 16 against FXIIIa: at least 15 fold

## Cc1ccc(C(=O)Nc2ccc(S(=O)(=O)O)c3cc(S(=O)(=O)O)cc(S(=O)(=O)O)c23)cc1NC(=O)c1cccc(NC(=O)Nc2cccc(C(=O)Nc3cc(C(=O)Nc4ccc(S(=O)(=O)O)c5cc(S(=O)(=O)O)cc(S(=O)(=O)O)c45)ccc3C)c2)c1 [compound 3]
[1]
  HS (Hill slope), FXIIIa inhibition: 1.0 ± 0.2
  IC50: 77.2 ± 17.1 µM

## O=C(Nc1cccc(C(=O)Nc2cc(C(=O)Nc3ccc(S(=O)(=O)O)c4cc(S(=O)(=O)O)cc(S(=O)(=O)O)c34)ccc2F)c1)Nc1cccc(C(=O)Nc2cc(C(=O)Nc3ccc(S(=O)(=O)O)c4cc(S(=O)(=O)O)cc(S(=O)(=O)O)c34)ccc2F)c1 [compound 4]
[1]
  FXIIIa inhibition at the highest concentration tested: did not inhibit
  IC50: > 50 µM

## O=C(Nc1ccc(C(=O)Nc2ccc(C(=O)Nc3ccc(S(=O)(=O)O)c4cc(S(=O)(=O)O)cc(S(=O)(=O)O)c34)cc2)cc1)Nc1ccc(C(=O)Nc2ccc(C(=O)Nc3ccc(S(=O)(=O)O)c4cc(S(=O)(=O)O)cc(S(=O)(=O)O)c34)cc2)cc1 [compound 5]
[1]
  HS (Hill slope), FXIIIa inhibition: 1.5 ± 0.8

## Cc1ccc(C(=O)Nc2ccc(CP(=O)(O)O)cc2CP(=O)(O)O)cc1NC(=O)c1cccc(NC(=O)Nc2cccc(C(=O)Nc3cc(C(=O)Nc4ccc(CP(=O)(O)O)cc4CP(=O)(O)O)ccc3C)c2)c1 [compound 6]
[1]
  IC50: > 1000 µM

## O=C(Nc1cccc(C(=O)Nc2ccc(S(=O)(=O)O)c3cc(S(=O)(=O)O)cc(S(=O)(=O)O)c23)c1)Nc1cccc(C(=O)Nc2ccc(S(=O)(=O)O)c3cc(S(=O)(=O)O)cc(S(=O)(=O)O)c23)c1 [compound 7]
[1]
  HS (Hill slope), FXIIIa inhibition: 0.9 ± 0.2
  IC50: 162 ± 37.1 µM

## Cc1ccc(C(=O)Nc2cc(S(=O)(=O)O)cc3ccc(S(=O)(=O)O)cc23)cc1NC(=O)Nc1cc(C(=O)Nc2cc(S(=O)(=O)O)cc3ccc(S(=O)(=O)O)cc23)ccc1C [compound 8]
[1]
  FXIIIa inhibition at the highest concentration tested: did not inhibit
  IC50: > 50 µM

## O=C(Nc1cc(C(=O)Nc2ccc(S(=O)(=O)O)cc2S(=O)(=O)O)cc(C(=O)Nc2ccc(S(=O)(=O)O)cc2S(=O)(=O)O)c1)Nc1cc(C(=O)Nc2ccc(S(=O)(=O)O)cc2S(=O)(=O)O)cc(C(=O)Nc2ccc(S(=O)(=O)O)cc2S(=O)(=O)O)c1 [compound 9]
[1]
  HS (Hill slope), FXIIIa inhibition: 0.9 ± 0.2
  IC50: 286 ± 71.5 µM

## O=C(Nc1cc(C(=O)Nc2ccc(S(=O)(=O)O)cc2)cc(C(=O)Nc2ccc(S(=O)(=O)O)cc2)c1)Nc1cc(C(=O)Nc2ccc(S(=O)(=O)O)cc2)cc(C(=O)Nc2ccc(S(=O)(=O)O)cc2)c1 [compound 10]
[1]
  FXIIIa inhibition at the highest concentration tested: did not inhibit
  IC50: > 50 µM

## Cc1[nH]n(-c2cc(Cl)c(S(=O)(=O)O)cc2Cl)c(=O)c1/N=N/c1cc(Nc2nc(Cl)nc(Nc3ccc(S(=O)(=O)O)cc3)n2)ccc1S(=O)(=O)O [compound 11]
[3]
  PT2X (concentration required to double PT): >1667 µM
[4]
  APTT2X (concentration required to double APTT): 1102.72 ± 93 ^b μM
[1]
  HS (Hill slope), FXIIIa inhibition: 0.9 ± 0.2
  IC50: 14.7 ± 3 µM

## CN(c1ccc2c(O)c(/N=N/c3ccccc3S(=O)(=O)O)c(S(=O)(=O)O)cc2c1)c1nc(Cl)nc(Nc2cccc(S(=O)(=O)O)c2)n1 [compound 12]
[4]
  APTT2X (concentration required to double APTT): 2067.59 ± 200 µM
[1]
  HS (Hill slope), FXIIIa inhibition: 1.0 ± 0.1
  IC50: 23.6 ± 1.5 µM

## CC(=O)Nc1ccc2cc(S(=O)(=O)O)c(/N=N/c3ccc(S(=O)(=O)CCOS(=O)(=O)O)cc3)c(O)c2c1 [compound 15]
[4]
  APTT2X (concentration required to double APTT): >1667 µM
[1]
  HS (Hill slope), FXIIIa inhibition: 1.0 ± 0.3
  IC50: 16.5 ± 5.3 µM

## O=S(=O)(O)c1ccc(/N=N/c2ccc(/N=N/c3c(O)c(S(=O)(=O)O)cc4cc(S(=O)(=O)O)ccc34)c(S(=O)(=O)O)c2)cc1 [compound 17]
[3]
  PT2X (concentration required to double PT): 868.96 ± 91 µM
[4]
  APTT2X (concentration required to double APTT): 681.54 ± 65 µM
[1]
  HS (Hill slope), FXIIIa inhibition: 1.5 ± 0.3
  IC50: 15.7 ± 2.1 µM

## O=C(Nc1ccc2c(O)cc(S(=O)(=O)O)cc2c1)Nc1ccc2c(O)cc(S(=O)(=O)O)cc2c1 [compound 23]
[1]
  FXIIIa inhibition at the highest concentration tested: did not inhibit
